According to patent publication US12649733B2, “3,6-diamino-pyridazin-3-yl derivatives, pharmaceutical compositions containing them and their uses as pro-apoptotic agents” (LES LABORATOIRES SERVIER, priority 2019, dated 2026):

How the values were obtained:
Bcl-xL protein = molecular target: T1, Bcl-xL protein (Homo sapiens, UniProt Q07817, N197C); assay: Fluorescence quenching assay (PUMA peptide displacement); format: binding; conditions: 1 nM protein, 400 nM peptide, 2 hours at 23° C.; KI determined from IC50
T1 construct: (2-197)[N197C]; His-His (two His8 stretches joined by a Gly/Ala/Ser/Thr linker)
T1 sequence (Q07817 2-197 N197C): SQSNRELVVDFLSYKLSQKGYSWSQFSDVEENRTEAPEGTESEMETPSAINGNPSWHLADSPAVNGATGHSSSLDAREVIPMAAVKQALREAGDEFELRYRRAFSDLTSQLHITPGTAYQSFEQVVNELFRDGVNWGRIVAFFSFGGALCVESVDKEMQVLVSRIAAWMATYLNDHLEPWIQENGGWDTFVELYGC
Excerpt: Fluorescence quenching assay measures the change in fluorescence intensity of C-terminally Cy5-labeled BCL-xL protein, His-His-(EK)-hs ? (2-197)[N197C] (UniProtKB® primary accession number Q07817-1) having an amino acid sequence (SEQ ID:03): [[…] […] […] […] […]] which is linked in C-terminal region to the amino acid X which corresponds to a cysteine labeled on the sulfur with Sulfo-Cyanine5 from Lumiprobe GmbH catalogue number 13380, upon binding of a C-terminally labeled peptide derived from PUMA (UniProtKB® primary accession number Q9BXH1) having an aminoacid sequence (SEQ ID:04): [[…]] which is linked in C-terminal region to the amino acid X′ where X′ is cysteine labeled on the sulfur with TQ5WS from AAT Bioquest catalogue number 2079.
The addition of a compound which binds competitively to the same site as the peptide will result in an increase in the fluorescence intensity of the protein due to displacement of the fluorescence quencher.
An 11-point serial dilution of each compound was prepared in DMSO the final buffer conditions were 10 mM 4-(2-hydroxyethyl)-1-piperazineethanesulfonic acid [HEPES], 150 mM NaCl, 0.05% Tween 20, pH 7.4 and 5% DMSO. The final protein concentration in the assay was 1 nM with the peptide present at 400 nM. The experiments were incubated for 2 hours at 23° C. before fluorescence intensity was measured on a Biotek SynergyNeo plate reader (Excitation 620 nm, emission 680 nm). […] The KI values were determined from the IC50 values according to Cer et al, Nucleic Acids Res, 2009, Jul. 1: 37(WebServer issue): W441-W445.

H146 cells = assay: H146 cell viability, MTT assay; format: cell-based; conditions: Homo sapiens, NCI-H146, 48 h, 48 h exposure
Method in brief: (§1)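 Cells grown in RPMI 1640 with 10% heat-inactivated FBS at 37° C, 5% CO2, exposed 48 h to nine 3.16-fold serial compound dilutions in triplicate. MTT added for 4 h, SDS/HCl solubilisation overnight, absorbance at 540 nm; IC50 by four-parameter fit.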

MOLT-4 cells = assay: MOLT-4 cell viability, MTT assay; format: cell-based; conditions: Homo sapiens, MOLT-4, 48 h, 48 h exposure
Method in brief: as §1

Structure (SMILES)	Ki (Bcl-xL protein) [nM]	IC50 (H146 cells) [nM]	IC50 (MOLT-4 cells) [nM]
CNC/C=C/c1ccc(OCCCc2sc(N(CCCCO)c3cc(C)c(Nc4nc5ccccc5s4)nn3)nc2C(=O)O)c(F)c1 [Example 185, 2-[[6-(1,3-Benzothiazol-2-ylamino)-5-methyl-pyridazin-3-yl]-(4-hydroxybutyl)amino]-5-[3-[2-fluoro-4-[(E)-3-(methylamino)prop-1-enyl]phenoxy]propyl]thiazole-4-carboxylic acid]	0.0012	7	16.8
Cc1cc(N(CCCCN2CCC(N)CC2)c2nc(C(=O)O)c(CCCOc3ccc(C#CCN(C)C)cc3F)s2)nnc1Nc1nc2ccccc2s1 [Example 175, 2-[4-(4-Amino-1-piperidyl)butyl-[6-(1,3-benzothiazol-2-ylamino)-5-methyl-pyridazin-3-yl]amino]-5-[3-[4-[3-(dimethylamino)prop-1-ynyl]-2-fluoro-phenoxy]propyl]thiazole-4-carboxylic acid]	0.0011	75	204
Cc1cc(N(CCCC(O)C[N+]23CCN(CC2)CC3)c2nc(C(=O)[O-])c(CCCOc3ccc(C#CCN(C)C)cc3F)s2)nnc1Nc1nc2ccccc2s1 (stereo not shown) [Example 216, 2-[[5-(1-aza-4-azoniabicyclo[2.2.2]octan-4-yl)-4-hydroxy-pentyl]-[6-(1,3-benzothiazol-2-ylamino)-5-methyl-pyridazin-3-yl]amino]-5-[3-[4-[3-(dimethylamino)prop-1-ynyl]-2-fluoro-phenoxy]propyl]thiazole-4-carboxylate]	0.004	222	146
Cc1cc(N(CCCCCN2CCC(N)CC2)c2nc(C(=O)O)c(CCCOc3ccc(C#CCN(C)C)cc3F)s2)nnc1Nc1nc2ccccc2s1 [Example 177, 2-[5-(4-Amino-1-piperidyl)pentyl-[6-(1,3-benzothiazol-2-ylamino)-5-methyl-pyridazin-3-yl]amino]-5-[3-[4-[3-(dimethylamino)prop-1-ynyl]-2-fluoro-phenoxy]propyl]thiazole-4-carboxylic acid]	0.003	36.3	225
CNCC#Cc1ccc(OCCCc2sc(N(CCN(C)C)c3cc(C)c(Nc4nc5ccccc5s4)nn3)nc2C(=O)O)c(F)c1 [Example 207, 2-[[6-(1,3-Benzothiazol-2-ylamino)-5-methyl-pyridazin-3-yl]-[2-(dimethylamino)ethyl]amino]-5-[3-[2-fluoro-4-[3-(methylamino)prop-1-ynyl]phenoxy]propyl]thiazole-4-carboxylic acid]	0.0037	1080	3280
Cc1cc(N(CCCCCN)c2nc(C(=O)O)c(CCCOc3ccc(C#CCN(C)C)cc3F)s2)nnc1Nc1nc2ccccc2s1 [Example 191, 2-[5-Aminopentyl-[6-(1,3-benzothiazol-2-ylamino)-5-methyl-pyridazin-3-yl]amino]-5-[3-[4-[3-(dimethylamino)prop-1-ynyl]-2-fluoro-phenoxy]propyl]thiazole-4-carboxylic acid]	0.0028	83.8	2200
Cc1cc(N(C)c2ccc(-c3cnn(CC45CC6(C)CC(C)(C4)CC(OCCNCCC(=O)O)(C6)C5)c3C)c(C(=O)O)n2)nnc1Nc1nc2ccccc2s1 [Example 271, 6-[[6-(1,3-benzothiazol-2-ylamino)-5-methyl-pyridazin-3-yl]-methyl-amino]-3-[1-[[3-[2-(2-carboxyethylamino)ethoxy]-5,7-dimethyl-1-adamantyl]methyl]-5-methyl-pyrazol-4-yl]pyridine-2-carboxylic acid]	0.0033	–	30.8
Cc1cc(N(C)c2ccc(-c3cnn(CC45CC6(C)CC(C)(C4)CC(OCCNCc4cccc(O)c4)(C6)C5)c3C)c(C(=O)O)n2)nnc1Nc1nc2ccccc2s1 [Example 272, 6-[[6-(1,3-benzothiazol-2-ylamino)-5-methyl-pyridazin-3-yl]-methyl-amino]-3-[1-[[3-[2-[(3-hydroxyphenyl)methylamino]ethoxy]-5,7-dimethyl-1-adamantyl]methyl]-5-methyl-pyrazol-4-yl]pyridine-2-carboxylic acid]	0.0023	–	0.284
Cc1cc(N(CCCC(O)C[N+](C)(C)CCCS(=O)(=O)[O-])c2nc(C(=O)O)c(CCCOc3ccc(/C=C/C=O)cc3F)s2)nnc1Nc1nc2ccccc2s1 (stereo not shown) [Example 228, 3-[[5-[[6-(1,3-Benzothiazol-2-ylamino)-5-methyl-pyridazin-3-yl]-[4-carboxy-5-[3-[2-fluoro-4-[(E)-3-oxoprop-1-enyl]phenoxy]propyl]thiazol-2-yl]amino]-2-hydroxy-pentyl]-dimethyl-ammonio]propane-1-sulfonate]	0.22	> 30000	–
Cc1cc(N(CCCCP(=O)(O)O)c2nc(C(=O)O)c(CCCOc3ccc(C#CCN(C)C)cc3F)s2)nnc1Nc1nc2ccccc2s1 [Example 242, 2-({6-[(1,3-Benzothiazol-2-yl)amino]-5-methylpyridazin-3-yl}(4-phosphonobutyl)amino)-5-(3-{4-[3-(dimethylamino)prop-1-yn-1-yl]-2-fluorophenoxy}propyl)-1,3-thiazole-4-carboxylic acid]	0.0078	–	525
COCCCNCCOC12CC3(C)CC(C)(CC(Cn4ncc(-c5ccc(N(C)c6cc(C)c(Nc7nc8ccccc8s7)nn6)nc5C(=O)O)c4C)(C3)C1)C2 [Example 269, 6-[[6-(1,3-benzothiazol-2-ylamino)-5-methyl-pyridazin-3-yl]-methyl-amino]-3-[1-[[3-[2-(3-methoxypropylamino)ethoxy]-5,7-dimethyl-1-adamantyl]methyl]-5-methyl-pyrazol-4-yl]pyridine-2-carboxylic acid]	0.0027	–	0.182
Cc1cc(N(C)c2ccc(-c3cnn(CC45CC6(C)CC(C)(C4)CC(OCCN4CCOCC4)(C6)C5)c3C)c(C(=O)O)n2)nnc1Nc1nc2ccccc2s1 [Example 270, 6-[[6-(1,3-benzothiazol-2-ylamino)-5-methyl-pyridazin-3-yl]-methyl-amino]-3-[1-[[3,5-dimethyl-7-(2-morpholinoethoxy)-1-adamantyl]methyl]-5-methyl-pyrazol-4-yl]pyridine-2-carboxylic acid]	0.003	–	0.199
CNCC#Cc1ccc(OCCCc2sc(N(CCCCCN=[N+]=[N-])c3cc(C)c(Nc4nc5ccccc5s4)nn3)nc2C(=O)O)c(F)c1 [Example 267, 2-[5-azidopentyl-[6-[(1,3-benzothiazol-2-yl)amino]-5-methyl-pyridazin-3-yl]amino]-5-[3-[2-fluoro-4-[3-(methylamino)prop-1-ynyl]phenoxy]propyl]-1,3-thiazole-4-carboxylic acid]	0.016	–	43.8
Cc1cc(N(CCCS(=O)(=O)O)c2nc(C(=O)O)c(CCCOc3ccc(C#CCN(C)C)cc3F)s2)nnc1Nc1nc2ccccc2s1 [Example 240, 2-({6-[(1,3-Benzothiazol-2-yl)amino]-5-methylpyridazin-3-yl}(3-sulfopropyl)amino)-5-(3-{4-[3-(dimethylamino)prop-1-yn-1-yl]-2-fluorophenoxy}propyl)-1,3-thiazole-4-carboxylic acid]	0.0073	–	1320
CNCC#Cc1cc(F)c(OCCCc2sc(N(C)c3cc(C)c(Nc4nc5ccccc5s4)nn3)nc2C(=O)O)cn1 [Example 197, 2-({6-[(1,3-Benzothiazol-2-yl)amino]-5-methylpyridazin-3-yl}(methyl)amino)-5-[3-({4-fluoro-6-[3-(methylamino)prop-1-yn-1-yl]pyridin-3-yl}oxy)propyl]-1,3-thiazole-4-carboxylic acid]	0.0013	43.9	–
Cc1cc(N(CCCCS(=O)(=O)O)c2nc(C(=O)O)c(CCCOc3ccc(C#CCN(C)C)cc3F)s2)nnc1Nc1nc2ccccc2s1 [Example 241, 2-({6-[(1,3-Benzothiazol-2-yl)amino]-5-methylpyridazin-3-yl}(4-sulfobutyl)amino)-5-(3-{4-[3-(dimethylamino)prop-1-yn-1-yl]-2-fluorophenoxy}propyl)-1,3-thiazole-4-carboxylic acid]	0.0094	–	1190
Cc1cc(N(C)c2ccc(-c3cnn(CC45CC6(C)CC(C)(C4)CC(OCCN(C)C)(C6)C5)c3C)c(C(=O)O)n2)nnc1Nc1nc2ccccc2s1 [Example 250, 6-[{6-[(1,3-benzothiazol-2-yl)amino]-5-methylpyridazin-3-yl}(methyl)amino]-3-[1-{{3-[2-(dimethylamino)ethoxy]-5,7-dimethyladamantan-1-yl}methyl)-5-methyl-1H-pyrazol-4-yl]pyridine-2-carboxylic acid]	0.0022	–	0.246
